Measured values from patent publication US5885767A (BioCatalytics, Inc., priority 1998, dated 1999).
Like-named read-outs stand apart in the source and are kept apart here.

How the values were obtained:
methionine gamma-lyase = molecular target: T1, methionine gamma-lyase (Pseudomonas putida, UniProt P13254); conditions: cited from earlier work; for inhibition of methionine gamma-lyase (in words): at concentrations between 0.1 mM and 10 mM
T1 sequence (P13254 1-398): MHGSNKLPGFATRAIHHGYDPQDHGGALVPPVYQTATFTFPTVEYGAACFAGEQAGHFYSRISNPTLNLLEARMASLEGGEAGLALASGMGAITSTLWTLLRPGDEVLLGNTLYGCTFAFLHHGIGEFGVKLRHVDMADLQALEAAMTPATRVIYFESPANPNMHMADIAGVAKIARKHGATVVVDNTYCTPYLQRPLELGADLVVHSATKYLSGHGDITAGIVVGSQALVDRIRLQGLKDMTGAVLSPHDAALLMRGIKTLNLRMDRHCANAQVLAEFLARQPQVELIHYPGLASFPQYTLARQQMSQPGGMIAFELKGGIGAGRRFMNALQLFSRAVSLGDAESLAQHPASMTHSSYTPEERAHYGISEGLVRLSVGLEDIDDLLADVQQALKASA

[1] = molecular target: T2, methionine gamma-lyase from Pseudomonas putida ICR 3460 (Pseudomonas putida, UniProt P13254); set-up: methionine gamma-lyase purified from Pseudomonas putida ICR 3460; host or cells: Pseudomonas putida ICR 3460 (enzyme purified from the organism itself); conditions: cited from earlier work; for Vmax as a substrate for methionine gamma-lyase: maximum velocity at saturating substrate concentrations; for Km / Vmax: purified enzyme from Pseudomonas putida ICR 3460
T2 sequence (P13254 1-398): T1 sequence (P13254 1-398)

[2] = molecular target: T2, methionine gamma-lyase from Pseudomonas putida ICR 3460
Description: The 2-ketobutyrate produced in the reaction is quantitated by reaction with lactic dehydrogenase and NADH, and the rate of decrease in the absorbance at 340 nm is monitored.
Stock solutions for the coupled spectrophotometric assay are prepared as follows:
Potassiumphosphate buffer, 100 mM, pH 8.0 containing 0.01 mM pyridoxal 5'-phosphate
NADH in deionized water, 5 mg/ml
Lactate dehydrogenase, crystalline suspension from rabbit muscle in 3.2M ammonium sulfate containing 9.6 mg protein/ml, with a specific activity of 800-1200 units per milligram (Sigma)
The assay mixture is prepared as follows:
A background reading of the absorbance at 340 nm was made. Enzyme solution (10 microliters, appropriately diluted to produce a change of absorbance at 340 nm between 0.1 and 1 absorbance unit per minute) is then added, and the rate of decrease in the absorbance at 340 nm is measured using a spectrophotometer.
One unit of methionine gamma-lyase activity is that amount of enzyme that causes the oxidation of 1 micromole of NADH per minute at room temperature under the assay conditions described above.

| Structure (SMILES) | inhibition of methionine gamma-lyase by thiol compounds (in words) (methionine gamma-lyase) | activity as a substrate of methionine gamma-lyase (in words) [1] | inhibition of methionine gamma-lyase (in words) (methionine gamma-lyase) | further results |
| --- | --- | --- | --- | --- |
| OCCS [β-mercaptoethanol] | nor do they inhibit the enzyme | not acted on by the enzyme | – | – |
| N[C@@H](CO)C(=O)O [L-serine] | – | either very poor substrates or do not react at all | Nor do these amino acids inhibit methionine gamma-lyase appreciably | – |
| N[C@@H](Cc1c[nH]c2ccccc12)C(=O)O [L-tryptophan] | – | either very poor substrates or do not react at all | Nor do these amino acids inhibit methionine gamma-lyase appreciably | – |
| CC(=O)S [thioacetic acid] | nor do they inhibit the enzyme | not acted on by the enzyme | – | – |
| N[C@@H](Cc1ccc(O)cc1)C(=O)O [L-tyrosine] | – | either very poor substrates or do not react at all | Nor do these amino acids inhibit methionine gamma-lyase appreciably | – |
| N[C@@H](CCS)C(=O)O [L-homocysteine] | – | excellent substrates | – | activity of the purified methionine gamma-lyase ([2]; L-homocysteine as substrate at a concentration of 2.5 mM): approximately 36 units per milligram; Vmax as a substrate for methionine gamma-lyase [1]: 36 micromoles per minute per milligram of pure protein; Km [1]: ≤ 1000 µM; Vmax [1]: 36 µmol/min/mg; Km ([1]; listed as L-Homocysteine): 430 µM |
| O[C@H](CS)[C@@H](O)CS [dithioerythritol] | nor do they inhibit the enzyme | not acted on by the enzyme | – | – |
| CSCC[C@H](N)C(=O)O [L-methionine] | – | excellent substrates | – | specific activity of purified methionine gamma-lyase ([2]; L-methionine as substrate, room temperature, pH 8.0, 1 unit = 1 micromole NADH oxidized per minute): approximately 20 units per milligram; Vmax as a substrate for methionine gamma-lyase [1]: about 20 micromoles per minute per milligram of pure protein; Km [1]: ≤ 1000 µM; Vmax [1]: 20.4 µmol/min/mg; Km ([1]; listed as L-Methionine): 1000 µM |
| C[C@@H](O)[C@H](N)C(=O)O [L-Threonine] | – | either very poor substrates or do not react at all | Nor do these amino acids inhibit methionine gamma-lyase appreciably | – |
| N[C@@H](CS)C(=O)O [L-cysteine] | – | low activity | – | – |
| N[C@@H](CCO)C(=O)O [L-homoserine] | – | either very poor substrates or do not react at all | Nor do these amino acids inhibit methionine gamma-lyase appreciably | – |
| O[C@H](CS)[C@H](O)CS [dithiothreitol] | nor do they inhibit the enzyme | not acted on by the enzyme | – | – |
